Legend:
[1] = system: CD4 T cells; assay: Avidity of UCP-specific CD4 T cells from UCP-immunized mice, IFN-γ ELISPOT; format: in vivo, A2/DR1 mice; settings: vaccinated once, ~1 μg peptide
Protocol: (5C-5D), Mice (3-4/group) were immunized once with each UCP in IFA.
(5D), Isolated CD4 T cells were cultured ex vivo with increasing concentrations of peptide as indicated. IFN-γ production was measured by ELISPOT. Curves, mean responses from 3 mice, bars, SD.
(5E), Mice were vaccinated once with low dose of UCP as indicated. UCP-specific T cell responses were evaluated in spleen by ex vivo IFN-γ ELISPOT.
(§1) To study the processing of UCP, A2/DR1 mice were immunized with a pTrip-TERT DNA (100 μg) at days 0 and 14 as previously reported (Adotevi et al, 2010). In some experiment CD4 T cells were depleted with anti-CD4 mAb treatment (clone GK1.5) prior DNA immunization. For UCP immunization, mice were injected with 100 μg of each UCP emulsified in incomplete Freund adjuvant (IFA, Sigma-Aldrich, France). In some experiments, 50 μg of pY988 peptide was co-injected with 100 μg of each UCP in IFA. […]
(§2) Ex vivo pentamer staining was performed as previously described (Adotevi et al, 2010; Adotevi et al, 2006). […] After cell staining, samples were analyzed by flow cytometry on a FACS Canto II (BD Biosciences, France) and using Diva software. […]
Next, to assess the avidity of UCP-specific CD4 T cell, freshly purified CD4 T cells from UCP-immunized mice were cultured in the presence of increasing concentrations of peptide and the number of specific IFN-γ producing CD4 T cells was measured by ELISPOT. […]

[2] = system: CD4 T cells; assay: Ex vivo IFN-γ ELISPOT of CD8 depleted spleen lymphocytes from TERT DNA-immunized mice; format: in vivo, A2/DR1 mice; settings: mice immunized with DNA encoding TERT
Protocol: (5A-5B), A2/DR1 mice (n=8) were immunized twice with a DNA encoding TERT.
(5B), CD8 depleted spleen lymphocytes from DNA-immunized mice were assayed in ex vivo IFN-γ ELISPOT. Columns mean of triplicate from 4 mice; bars, SD.
To study the processing of UCP, A2/DR1 mice were immunized with a pTrip-TERT DNA (100 μg) at days 0 and 14 as previously reported (Adotevi et al, 2010). In some experiment CD4 T cells were depleted with anti-CD4 mAb treatment (clone GK1.5) prior DNA immunization. For UCP immunization, mice were injected with 100 μg of each UCP emulsified in incomplete Freund adjuvant (IFA, Sigma-Aldrich, France). In some experiments, 50 μg of pY988 peptide was co-injected with 100 μg of each UCP in IFA. All peptide vaccinations were done subcutaneously (s.c) at the right abdominal flank. Eight to ten week-old mice were bred and maintained in our animal facilities. All experiments were done according to the good laboratory practices defined by animal experimentation rules in France.
Ex vivo pentamer staining was performed as previously described (Adotevi et al, 2010; Adotevi et al, 2006). Cells were stained with PE-conjugated pY988 and pY572 HLA-A2.1 pentamer (ProImmune, UK). After cell staining, samples were analyzed by flow cytometry on a FACS Canto II (BD Biosciences, France) and using Diva software. […]
The inventors and others have previously reported that the use of humanized HLA transgenic mice models to screen for human tumor antigens represents a potent alternative to optimize “reverse immunology” approaches for epitope identification (Adotevi et al, 2006; Osen et al, 2010). […] To assess whether UCPs can be endogenously processed from the TERT protein, the inventors performed immunizations with a plasmid DNA encoding the full length TERT sequence and the UCP-specific CD4 splenocytes were monitored by a five-day 3H-thymidine incorporation assay. […] To this end, freshly isolated CD4 T cells from UCP-vaccinated mice were cultured in the presence of syngenic iDC pulsed or not with UCP and cytokines production was measured.

[3] = system: HLA-DR molecules; assay: HLA-DR binding assay, competitive ELISA, summary over the alleles tested; design: species or system human; settings: RA intermediate 100-500, low <100
Protocol: (§3) Synthetic peptides (>80% purity) were purchased from Activotec (Cambridge, United Kingdom). The binding capacity to HLA-DR molecules was assessed by competitive ELISA as previously reported (Wang et al).
(§4) To predict the existence of CD4 epitopes within the amino acid sequence of TERT capable of binding to multiple HLA-DR molecules, the inventors have combined results from three algorithms Syfpeithi, NetMHCpan-2.1 and NetMHC2.2. They have selected four 15-mers peptide sequences referred as UCP1 to UCP4 that scored high in the probability scale for their binding capacity to the commonly found human HLA-DR alleles (Table 1). […] Data are expressed as relative activity RA (ratio of the IC50 of UCPs to the IC50 of the reference peptide) and are the means of three experiments. Good binders have a […] and weak binder are […].
Thus, according to phenotypic frequencies of the 10 prevalent HLA-DR antigens, these peptides could cover more than 90% of population (Wang et al).

[4] = system: blood lymphocytes from NSCLC patients and healthy volunteers; assay: Spontaneous UCP-specific T cell responses, IFN-γ ELISPOT after one week stimulation; format: cell-based, human; settings: frequency of T cell responses
[5] = system: immature bone marrow-derived DCs; assay: In vitro DC-CD4 T cell co-culture; format: cell-based, A2/DR1 mice; settings: CD4 T cells from UCP2/IFA versus IFA injected mice
Protocol: 8B, Schema of the in vitro DC-CD4 T cell co-culture.
8C, IFN-γ and GM-CSF production measured by ELISA in the supernatant.
8D, Expression of CD86 and HLA-DR on CD11c+ DC.
8E, Interleukin 12 production measured in supernatant by ELISA.
Spleen or lymph nodes CD11c+ DCs from peptide-immunized mice were directly analyzed for co-stimulatory receptor expression. In some experiments, immature bone marrow-derived DCs (iDC) from A2/DR1 mice were cultured 15-h with CD4 T cells from mice immunized with UCP or IFA alone and then stained for cell surface expression of co-stimulatory receptors and cytokines production.
The induction of dendritic cell activation represents one major helper mechanism used by CD4+ Th1 cells to sustain antigen presentation and provide costimulatory signals to the CTLs. This is referred as the “ménage à trois” model (Ridge et al, 1998). To test this mechanism, the inventors have analyzed the expression of co-stimulating receptors on DCs from mice immunized with the mix of pY988+/−UCP2. […] In a second set of experiments, isolated CD4 T cells from UCP2/IFA or IFA injected mice were co-cultured with syngenic iDCs as shown in FIG. 8B. As expected, UCP2-specific CD4 T cells produced significant amounts of Th1 cytokines such as IFN-γ and GM-CSF (FIG. 8C).

[6] = system: UCP-specific CD4 T cell clones; assay: TNF secretion of UCP-specific CD4 T cell clones from cancer patient, flow cytometry; format: cell-based, human; settings: CD4 T cell clones with cognate peptide, 5 h, Brefeldin A; read-out: peptide concentration at half-maximal TNF secretion
Protocol: T cell clones were obtained by limiting dilution of cancer patients T cell lines stimulated one time with the pool of UCPs. (2A and 2C) Percentage of TNF-producing T cells and of T cell clones isolated from patients GE001 in response to 10 μM of the relevant UCP; 10^5 T cells were incubated for 5 h in the presence of Brefeldin A, stained with CD4 antibody, fixed, and stained with anti-TNF antibody in a permeabilization buffer; 10^4 T cells were then analyzed in flow cytometry. (2B and 2D) Reactivity of the CD4 T cell clones in response to relevant UCP. CD4 T cell clones were culture with a range of the indicated peptide concentration. TNF secretion was assessed 5 h in the presence of Brefeldin A, by flow cytometry. (2E) Detection of cytokines produced by GE001.36 T cell clone in response to 10 μM of UCP4 using human ten-plex cytokines assay. […]
For intracytoplasmic cytokine staining, after a 5-h stimulation period with or without 10 μM peptide, T cells were labeled with anti-CD4 (BD Bioscience, USA) and anti-TNF-α (ebioscience, USA) using Cytofix/Cytoperm KIT (BD Bioscience). […] Samples were acquired on a FACS Canto II (BD Biosciences) and analyzed with the DIVA software. […]

[7] = system: HLA-DR DR11; assay: HLA-DR binding assay, competitive ELISA; design: species or system human; settings: means of three experiments
[8] = system: HLA-DR DR3; assay: HLA-DR binding assay, competitive ELISA; design: species or system human; settings: means of three experiments
Protocol: as §3, §4

[9] = system: pY988-specific CD8 T cells; assay: Co-immunization pY988 plus UCP: pY988-specific CTL response by pentamer staining and IFN-γ ELISPOT; format: in vivo, A2/DR1 mice; settings: pY988 plus UCP in IFA versus pY988/IFA alone, day 10, spleen
Source text: Mice (3/group) were immunized either with pY988 plus each UCP in IFA or with pY988/IFA alone and the immune responses were monitored ten days later in the spleen. 6A, freshly isolated CD8 T cells were stained with TERT pY988/A2+ pentamer. Representative flow cytometry dot plots (upper panel) and mean percentages of pY988/A2+ CD8 T cells (lower panel) are shown.
6B, Ex vivo detection of anti-pY988 CD8 T cells by IFN-γ ELISPOT.
as §1, §2
CD4 T cell helper functions are thought to be important for the generation of potent and sustained CTL responses (Shedlock et al, 2003). […] The pY988-specific CTL response was measured ex vivo by pentamer staining and ELISPOT assays. […]

[10] = system: HLA-DR DR13; assay: HLA-DR binding assay, competitive ELISA; design: species or system human; settings: means of three experiments
Protocol: as §3, §4

[11] = target: HLA-DR DRB4 (Homo sapiens, UniProt P01903+P13762); assay: HLA-DR binding assay, competitive ELISA; settings: means of three experiments
Protocol: as §3, §4

| Sequence | IFN-γ+ CD4 T cells after low dose vaccination [1] | specific CD4 T cell responses detected [2] | capacity to bind HLA-DR molecules [3] | CD4 T cell responses to individual UCPs [4] | DC activation and interleukin-12 production in presence of UCP2-specific CD4 T cells [5] | EC50 [6] | Relative affinity RA (ratio of the IC50 of UCPs to the IC50 of the reference peptide) [7] | Relative affinity RA (ratio of the IC50 of UCPs to the IC50 of the reference peptide) [8] | frequency of pY988/A2 pentamer+ CD8 T cells [9] | Relative affinity RA (ratio of the IC50 of UCPs to the IC50 of the reference peptide) [10] | Relative affinity RA (ratio of the IC50 of UCPs to the IC50 of the reference peptide) [11] |
| --- | --- | --- | --- | --- | --- | --- | --- | --- | --- | --- | --- |
| GTAFVQMPAHGLFPW [UCP3] | stimulated potent IFN-γ+ CD4 T cells | in all immunized mice | – | – | – | – | – | – | – | – | – |
| KSVWSKLQSIGIRQH [UCP2, universal cancer peptide derived from TERT, 15-mer] | stimulated potent IFN-γ+ CD4 T cells | in all immunized mice | able to bind every HLA-DR molecules tested | more immunogenic | induced potent DCs activation | ~4 µM | – | – | – | – | – |
| PAAFRALVAQCLVCV (listed as Homo sapiens) [UCP1, universal cancer peptide derived from TERT, 15-mer] | – | – | able to bind every HLA-DR molecules tested | – | – | – | 25 | 0.4 | little impact | – | – |
| SLCYSILKAKNAGMS [UCP4, universal cancer peptide derived from TERT, 15-mer] | – | in all immunized mice | – | more immunogenic | – | < 0.1 µM | 0,3 | >500 | – | >500 | >500 |
